Reference: paper PMC3961306, “Comparison of the Cancer Gene Targeting and Biochemical Selectivities of All Targeted Kinase Inhibitors Approved for Clinical Use” (PLoS ONE, 2014)

Tests used:
Experiment in all cases: Kinase profiling in a biochemical assay panel (mobility shift assays and ELISA), %-inhibition at 1 μM; selectivity entropy
[1] = biological target: T1, panel of more than 300 wild-type and mutant kinases (313 kinase panel) (Homo sapiens, UniProt Q9UQB9)
T1 sequence (Q9UQB9 1-309): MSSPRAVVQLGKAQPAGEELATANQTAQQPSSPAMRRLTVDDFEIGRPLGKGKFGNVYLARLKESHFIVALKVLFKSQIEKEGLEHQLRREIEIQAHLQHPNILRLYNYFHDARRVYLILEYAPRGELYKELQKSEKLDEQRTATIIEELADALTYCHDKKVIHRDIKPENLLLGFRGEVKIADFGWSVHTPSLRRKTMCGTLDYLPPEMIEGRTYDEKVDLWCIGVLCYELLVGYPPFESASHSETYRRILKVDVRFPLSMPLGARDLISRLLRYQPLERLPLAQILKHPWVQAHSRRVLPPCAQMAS

[2] = biological target: T2, panel of more than 300 wild-type and mutant kinases (313 kinase panel) (Homo sapiens, UniProt P54760)
T2 sequence (P54760 16-987): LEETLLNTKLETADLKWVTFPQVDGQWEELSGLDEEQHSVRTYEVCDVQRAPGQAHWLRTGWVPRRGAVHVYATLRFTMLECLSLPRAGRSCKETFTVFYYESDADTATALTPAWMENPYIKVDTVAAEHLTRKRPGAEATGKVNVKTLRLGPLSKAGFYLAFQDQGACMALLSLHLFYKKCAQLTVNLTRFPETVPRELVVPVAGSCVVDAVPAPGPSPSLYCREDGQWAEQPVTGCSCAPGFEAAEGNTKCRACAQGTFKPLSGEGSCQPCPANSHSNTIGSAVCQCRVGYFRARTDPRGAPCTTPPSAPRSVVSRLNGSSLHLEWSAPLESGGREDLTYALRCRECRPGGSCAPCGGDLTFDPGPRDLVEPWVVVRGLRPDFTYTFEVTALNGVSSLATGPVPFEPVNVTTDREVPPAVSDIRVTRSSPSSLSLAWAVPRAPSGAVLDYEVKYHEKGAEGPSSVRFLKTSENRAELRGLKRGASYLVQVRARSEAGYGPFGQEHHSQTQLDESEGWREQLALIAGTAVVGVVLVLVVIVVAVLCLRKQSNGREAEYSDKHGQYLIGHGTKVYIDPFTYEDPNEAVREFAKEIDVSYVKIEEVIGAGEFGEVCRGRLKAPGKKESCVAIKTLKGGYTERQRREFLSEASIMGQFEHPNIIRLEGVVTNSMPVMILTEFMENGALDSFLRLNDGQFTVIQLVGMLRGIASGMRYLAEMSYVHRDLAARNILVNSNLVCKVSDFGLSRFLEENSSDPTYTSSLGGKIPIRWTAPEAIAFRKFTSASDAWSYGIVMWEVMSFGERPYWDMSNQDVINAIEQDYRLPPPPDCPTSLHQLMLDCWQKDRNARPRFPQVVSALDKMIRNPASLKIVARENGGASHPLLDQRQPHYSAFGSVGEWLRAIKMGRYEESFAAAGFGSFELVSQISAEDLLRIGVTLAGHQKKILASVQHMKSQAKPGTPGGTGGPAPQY

[3] = biological target: panel of more than 300 wild-type and mutant kinases (313 kinase panel) (Homo sapiens, UniProt P30291)
[4] = biological target: panel of more than 300 wild-type and mutant kinases (313 kinase panel) (Homo sapiens, UniProt Q06187)
[5] = biological target: T3, panel of more than 300 wild-type and mutant kinases (313 kinase panel) (Homo sapiens, UniProt Q9UF33)
T3 sequence (Q9UF33 23-1036): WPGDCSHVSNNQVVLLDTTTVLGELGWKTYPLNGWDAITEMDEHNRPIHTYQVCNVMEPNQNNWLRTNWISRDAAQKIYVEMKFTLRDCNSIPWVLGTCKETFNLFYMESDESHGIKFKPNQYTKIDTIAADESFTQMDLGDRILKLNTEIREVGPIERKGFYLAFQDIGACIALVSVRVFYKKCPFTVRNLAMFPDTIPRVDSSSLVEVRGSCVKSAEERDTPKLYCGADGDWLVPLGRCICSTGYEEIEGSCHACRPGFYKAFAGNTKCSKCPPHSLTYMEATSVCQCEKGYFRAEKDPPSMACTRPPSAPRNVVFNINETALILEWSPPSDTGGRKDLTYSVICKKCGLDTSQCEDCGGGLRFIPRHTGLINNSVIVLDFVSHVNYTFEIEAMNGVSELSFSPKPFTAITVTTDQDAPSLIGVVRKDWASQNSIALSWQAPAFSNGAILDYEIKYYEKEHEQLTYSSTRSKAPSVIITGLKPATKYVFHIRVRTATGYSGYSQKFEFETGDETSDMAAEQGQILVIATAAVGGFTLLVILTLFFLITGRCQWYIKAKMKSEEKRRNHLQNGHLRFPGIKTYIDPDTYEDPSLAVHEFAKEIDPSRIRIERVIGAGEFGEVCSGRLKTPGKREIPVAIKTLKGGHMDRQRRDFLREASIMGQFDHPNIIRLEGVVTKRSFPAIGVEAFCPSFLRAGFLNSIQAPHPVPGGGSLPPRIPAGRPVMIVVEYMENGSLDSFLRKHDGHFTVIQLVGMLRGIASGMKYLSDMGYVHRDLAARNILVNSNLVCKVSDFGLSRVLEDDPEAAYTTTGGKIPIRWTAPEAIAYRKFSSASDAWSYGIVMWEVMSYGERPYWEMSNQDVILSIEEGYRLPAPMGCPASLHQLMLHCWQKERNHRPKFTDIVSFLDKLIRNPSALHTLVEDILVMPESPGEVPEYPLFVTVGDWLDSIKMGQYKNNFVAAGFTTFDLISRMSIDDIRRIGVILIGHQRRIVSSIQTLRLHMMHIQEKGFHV

[6] = biological target: panel of more than 300 wild-type and mutant kinases (313 kinase panel) (Homo sapiens, UniProt P68400)
[7] = biological target: panel of more than 300 wild-type and mutant kinases (313 kinase panel) (Homo sapiens, UniProt P16234, V561D)
panel of more than 300 wild-type and mutant kinases (313 kinase panel) (Homo sapiens, UniProt P16234, V561D), sequence (P16234 24-1089 V561D): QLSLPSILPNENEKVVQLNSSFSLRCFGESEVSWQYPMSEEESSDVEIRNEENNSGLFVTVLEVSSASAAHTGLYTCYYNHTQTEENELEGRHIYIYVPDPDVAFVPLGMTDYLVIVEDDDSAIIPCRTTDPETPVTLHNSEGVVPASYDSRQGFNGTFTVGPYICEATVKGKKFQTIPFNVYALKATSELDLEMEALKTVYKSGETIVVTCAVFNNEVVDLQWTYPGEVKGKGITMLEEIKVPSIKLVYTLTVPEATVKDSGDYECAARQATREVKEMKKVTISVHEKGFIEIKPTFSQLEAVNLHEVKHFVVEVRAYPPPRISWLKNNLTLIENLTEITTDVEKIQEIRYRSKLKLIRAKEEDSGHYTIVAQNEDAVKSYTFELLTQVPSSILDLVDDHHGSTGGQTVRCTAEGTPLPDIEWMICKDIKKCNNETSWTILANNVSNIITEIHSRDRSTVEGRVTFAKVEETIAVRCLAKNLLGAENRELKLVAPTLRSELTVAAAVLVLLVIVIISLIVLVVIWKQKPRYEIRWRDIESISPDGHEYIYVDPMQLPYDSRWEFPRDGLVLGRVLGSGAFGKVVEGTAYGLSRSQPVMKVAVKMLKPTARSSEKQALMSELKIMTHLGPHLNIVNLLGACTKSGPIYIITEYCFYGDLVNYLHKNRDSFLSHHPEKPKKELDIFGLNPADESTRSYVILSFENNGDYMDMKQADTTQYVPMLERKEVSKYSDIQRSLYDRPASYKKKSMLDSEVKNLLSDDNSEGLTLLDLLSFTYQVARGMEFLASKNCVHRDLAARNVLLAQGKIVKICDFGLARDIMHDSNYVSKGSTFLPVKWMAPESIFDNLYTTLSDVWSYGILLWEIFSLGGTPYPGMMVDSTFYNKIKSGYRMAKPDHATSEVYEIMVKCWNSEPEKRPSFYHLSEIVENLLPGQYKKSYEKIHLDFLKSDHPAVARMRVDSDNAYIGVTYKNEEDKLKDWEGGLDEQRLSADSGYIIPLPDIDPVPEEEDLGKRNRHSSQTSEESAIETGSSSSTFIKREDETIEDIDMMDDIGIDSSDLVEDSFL

panel of more than 300 wild-type and mutant kinases (313 kinase panel) (Homo sapiens, UniProt P30291), sequence (P30291 whole entry, change not shown): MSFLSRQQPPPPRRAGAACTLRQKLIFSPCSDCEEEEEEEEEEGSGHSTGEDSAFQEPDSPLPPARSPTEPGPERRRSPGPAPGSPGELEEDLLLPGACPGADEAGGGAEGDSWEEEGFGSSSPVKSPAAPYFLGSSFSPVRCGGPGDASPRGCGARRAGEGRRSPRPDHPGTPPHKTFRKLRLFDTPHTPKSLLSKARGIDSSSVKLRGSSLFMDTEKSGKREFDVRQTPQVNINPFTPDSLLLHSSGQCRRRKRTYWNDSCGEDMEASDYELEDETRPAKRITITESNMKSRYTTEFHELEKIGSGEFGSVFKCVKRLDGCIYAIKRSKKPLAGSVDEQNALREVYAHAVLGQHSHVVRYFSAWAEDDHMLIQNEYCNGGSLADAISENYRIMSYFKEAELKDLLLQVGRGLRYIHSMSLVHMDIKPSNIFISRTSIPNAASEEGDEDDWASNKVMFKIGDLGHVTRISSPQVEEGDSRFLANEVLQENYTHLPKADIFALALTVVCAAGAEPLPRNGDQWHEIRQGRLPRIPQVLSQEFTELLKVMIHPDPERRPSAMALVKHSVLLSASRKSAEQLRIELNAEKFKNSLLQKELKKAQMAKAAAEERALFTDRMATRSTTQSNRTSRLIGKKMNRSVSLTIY

Structure (SMILES)	%-inhibition, AurC ([1]; kinase AurC, 1 μM compound)	%-inhibition of EPHB4 ([2]; kinase EPHB4, compound at 1 μM)	%-inhibition of WEE1 ([3]; kinase WEE1, compound at 1 μM)	%-inhibition, BTK ([4]; kinase BTK, 1 μM compound)	%-inhibition of EPHA6 ([5]; kinase EPHA6, compound at 1 μM)	%-inhibition, CK2α1/β ([6]; kinase CK2α1/β, 1 μM compound)	%-inhibition of PDGFRα(V561D) ([7]; kinase PDGFRα(V561D), 1 μM)	%-inhibition of EPHA6 ([5]; 1 µM)	%-inhibition, BTK ([4]; 1 µM)	%-inhibition, CK2α1/β ([6]; 1 µM)	%-inhibition, AurC ([1]; 1 µM)	%-inhibition of EPHB4 ([2]; 1 µM)	%-inhibition of WEE1 ([3]; 1 µM)	%-inhibition of PDGFRα(V561D) ([7]; 1 µM)
CO[C@H]1C[C@@H]2CC[C@@H](C)[C@@](O)(O2)C(=O)C(=O)N2CCCC[C@H]2C(=O)O[C@H]([C@H](C)C[C@@H]2CC[C@@H](OCCO)[C@H](OC)C2)CC(=O)[C@H](C)/C=C(\C)[C@@H](O)[C@@H](OC)C(=O)[C@H](C)C[C@H](C)/C=C/C=C/C=C/1C [everolimus]	-6.41%	-4.49%	7%	1.16%	2.18%	-4.26%	-6%							
CCN(CC)CCNC(=O)c1c(C)[nH]c(/C=C2\C(=O)Nc3ccc(F)cc32)c1C [sunitinib]	82%					-21%								
CC(=O)Nc1cccc(-n2c(=O)n(C3CC3)c(=O)c3c(Nc4ccc(I)cc4F)n(C)c(=O)c(C)c32)c1 [trametinib]	1%	-3.38%	9%	18%		-3.4%	2.22%	-2.51%						
O=S(=O)(c1cccc2cnccc12)N1CCCNCC1 [fasudil]	-0.164%	-5.34%	-0.258%	1.51%	6%	-4%	9%							
N#CC[C@H](C1CCCC1)n1cc(-c2ncnc3[nH]ccc23)cn1 [ruxolitinib]		0.569%	-1.32%		-1.06%	-6%	18%		-6%					
CC(C)(C)c1nc(-c2cccc(NS(=O)(=O)c3c(F)cccc3F)c2F)c(-c2ccnc(N)n2)s1 [dabrafenib]	23%		0.651%	60%	88%		51%							
C[C@@H](Oc1cc(-c2cnn(C3CCNCC3)c2)cnc1N)c1c(Cl)ccc(F)c1Cl [crizotinib]	87%	83%	12%		100%		30%			-6.39%				
COc1cc2c(Nc3ccc(Br)cc3F)ncnc2cc1OCC1CCN(C)CC1 [vandetanib]			1.73%			-7%	100%							
C#Cc1cccc(Nc2ncnc3cc(OCCOC)c(OCCOC)cc23)c1 [erlotinib]								69%		0%	24%	33%	20%	56%
Cc1ccc(C(=O)Nc2ccc(CN3CCN(C)CC3)c(C(F)(F)F)c2)cc1C#Cc1cnc2cccnn12 [ponatinib]	19%	101%	2.14%	95%	103%		103%							
Cc1ccc(Nc2nccc(N(C)c3ccc4c(C)n(C)nc4c3)n2)cc1S(N)(=O)=O [pazopanib]	58%	16%	1%	13%	24%	-3%								
Cc1nc(Nc2ncc(C(=O)Nc3c(C)cccc3Cl)s2)cc(N2CCN(CCO)CC2)n1 [dasatinib]						-1.7%								
COc1cc(Nc2c(C#N)cnc3cc(OCCCN4CCN(C)CC4)c(OC)cc23)c(Cl)cc1Cl [bosutinib]		96%	98%	97%	102%		64%				-4%			
CS(=O)(=O)CCNCc1ccc(-c2ccc3ncnc(Nc4ccc(OCc5cccc(F)c5)c(Cl)c4)c3c2)o1 [lapatinib]		-0.865%	8%		20%	-1.7%					3.4%			-1%
